# Laboratory results from patent US6943185B2, “Use of 2-methyl-thiazolidine-2,4-dicarboxylic acid and/or physiologically compatible salts thereof for producing a medicament for treating cancers” (Trommsdorff GmbH & Co. KG, priority 2000, dated 2005).
# Assays:
# [1] = pulmonary cancer patients treated with epirubicin and simultaneously NAC; cited from earlier work
# animal tumor models = assay: Animal tumor models (skin papillomas, mammary adenocarcinomas, tracheal cancer, pulmonary adenocarcinomas, colon carcinomas, bladder cancer); format: in vivo; conditions: several animal tumor models in mouse, rat, hamster
# Experimental: These studies were conducted in several animal tumor models. Test systems used were the mouse, the rat, and the hamster. The objects of study included skin papillomas, mammary adenocarcinomas, tracheal cancer, pulmonary adenocarcinomas as well as colon carcinomas and bladder cancer.
# [2] = system: reduced glutathione (GSH) in the hepatic tissue; assay: Effect of 2-MTDC on reduced glutathione (GSH) in the hepatic tissue in mice; format: in vivo; conditions: mouse liver; for Glutathione (GSH), % of the reference value: reference 0.9% NaCl
# [3] = cited from earlier work
# [4] = 2-MTDC 1.2 mmol/kg intraperitoneally, 8 hours after injection
# [5] = 2-MTDC 2.4 mmol/kg intraperitoneally, 4 hours after injection
smiles,measurement,setting,value
CC(=O)N[C@@H](CS)C(=O)O [N-acetylcysteine],Effect on undesirable cardiotoxic effects of epirubicin,[1],undesirable cardiotoxic effects of epirubicin could be prevented
"CC1(C(=O)O)NC(C(=O)O)CS1 (stereo not shown) [2-MTDC, 2-methyl-thiazolidine-2,4-dicarboxylic acid]",Effect on the advance of cancerous diseases,animal tumor models,can slow down or even stop the advance of cancerous diseases
same,"Glutathione (GSH), % of the reference value","[2]; 2-MTDC 1.2 mmol/kg intraperitoneally, 1 hour after injection",117.5%
same,"Glutathione (GSH), % of the reference value","[2]; 2-MTDC 1.2 mmol/kg intraperitoneally, 4 hours after injection",87.2%
same,"Glutathione (GSH), mean ± SD",[2]; [4],6.48 ± 0.67 μmol/g wet weight
same,"Glutathione (GSH), % of the reference value",[2]; [4],108.5%
same,"Glutathione (GSH), % of the reference value","[2]; 2-MTDC 1.2 mmol/kg intraperitoneally, 12 hours after injection",112.0%
same,"Glutathione (GSH), % of the reference value","[2]; 2-MTDC 2.4 mmol/kg intraperitoneally, 1 hour after injection",127.6%
same,"Glutathione (GSH), mean ± SD",[2]; [5],5.76 ± 0.42 μmol/g wet weight
same,"Glutathione (GSH), % of the reference value",[2]; [5],90.3%
same,"Glutathione (GSH), % of the reference value","[2]; 2-MTDC 2.4 mmol/kg intraperitoneally, 8 hours after injection",112.0%
same,"Glutathione (GSH), % of the reference value","[2]; 2-MTDC 2.4 mmol/kg intraperitoneally, 12 hours after injection",154.5%
CC1NC(C(=O)O)CS1 (stereo not shown),Stability under physiological conditions,[3],spontaneously decomposes into its components under physiological conditions
